Laboratory results from the NIST ThermoML archive (doi:10.1007/s10765-010-0737-5).
Numbers after ± are expanded uncertainties.

Assay: xn = mol fraction of the nth substance listed
Conditions: Liquid; for viscosity: 101 kPa, Capillary tube (Ostwald / Ubbelohde) method; for mass density: 101.3 kPa

CCC(C)Cl (stereo not drawn) [2-chlorobutane] + CC(C)OC(C)C
Conditions	mass density, 283.15 K [kg/m3]	mass density, 288.15 K [kg/m3]	mass density, 293.15 K [kg/m3]	viscosity, 283.15 K [mPa·s]	viscosity, 288.15 K [mPa·s]	viscosity, 293.15 K [mPa·s]	viscosity, 298.15 K [mPa·s]
x1 = 0.0519	740.159 ± 0.9	734.981 ± 0.92	729.792 ± 0.93	0.3683 ± 0.004	0.3519 ± 0.0039	0.3371 ± 0.0038	0.321 ± 0.0036
x1 = 0.0988	745.897 ± 0.89	740.712 ± 0.9	735.485 ± 0.91	0.3716 ± 0.004	0.3549 ± 0.0039	0.34 ± 0.0038	0.3239 ± 0.0036
x1 = 0.2006	758.792 ± 0.87	753.569 ± 0.88	748.303 ± 0.89	0.3796 ± 0.0041	0.3621 ± 0.004	0.3468 ± 0.0038	0.3306 ± 0.0037
x1 = 0.3211	774.756 ± 0.83	769.483 ± 0.84	764.161 ± 0.86	0.3899 ± 0.0042	0.3713 ± 0.004	0.3555 ± 0.0039	0.3392 ± 0.0038
x1 = 0.4201	788.575 ± 0.81	783.251 ± 0.82	777.889 ± 0.83	0.3991 ± 0.0043	0.3795 ± 0.0041	0.3632 ± 0.004	0.3467 ± 0.0038
x1 = 0.532	804.971 ± 0.78	799.602 ± 0.79	–	0.4101 ± 0.0044	0.3894 ± 0.0042	0.3725 ± 0.0041	0.3559 ± 0.0039
x1 = 0.6244	819.223 ± 0.74	813.814 ± 0.76	808.369 ± 0.77	0.4199 ± 0.0045	0.398 ± 0.0043	0.3806 ± 0.0041	0.3639 ± 0.004
x1 = 0.726	835.602 ± 0.71	830.144 ± 0.72	824.657 ± 0.73	0.431 ± 0.0046	0.408 ± 0.0044	0.39 ± 0.0042	0.3731 ± 0.0041
x1 = 0.8163	850.907 ± 0.68	845.414 ± 0.69	839.877 ± 0.7	0.4413 ± 0.0046	0.4172 ± 0.0044	0.3987 ± 0.0043	0.3817 ± 0.0041
x1 = 0.8817	862.411 ± 0.66	856.901 ± 0.67	851.332 ± 0.68	0.4489 ± 0.0047	0.424 ± 0.0045	0.4051 ± 0.0043	0.3879 ± 0.0042
x1 = 0.9634	877.39 ± 0.63	871.819 ± 0.64	866.214 ± 0.65	0.4587 ± 0.0048	0.4326 ± 0.0046	0.4131 ± 0.0044	0.3959 ± 0.0043
x1 = 1	884.34 ± 0.61	878.756 ± 0.62	873.13 ± 0.63	0.4631 ± 0.0048	0.4365 ± 0.0046	0.4167 ± 0.0044	0.3993 ± 0.0043
